Results on 17 compounds are retold here after patent US8765748B2, “Indazolyl, benzimidazolyl, benzotriazolyl substituted indolinone derivatives as kinase inhibitors useful in the treatment of cancer” (University Health Network, priority 2007, dated 2014).

Usually IC50 stands for the midpoint of a concentration-inhibition curve. In general, inhibition refers to the share of the control response that was lost under treatment.

The structures appear in SMILES notation.

Assay type in all cases: biochemical
One experiment concerns the target T1, Aurora A (Homo sapiens, UniProt O14965).
T1 construct: purchased Invitrogen PV3612
T1 sequence (O14965 1-403): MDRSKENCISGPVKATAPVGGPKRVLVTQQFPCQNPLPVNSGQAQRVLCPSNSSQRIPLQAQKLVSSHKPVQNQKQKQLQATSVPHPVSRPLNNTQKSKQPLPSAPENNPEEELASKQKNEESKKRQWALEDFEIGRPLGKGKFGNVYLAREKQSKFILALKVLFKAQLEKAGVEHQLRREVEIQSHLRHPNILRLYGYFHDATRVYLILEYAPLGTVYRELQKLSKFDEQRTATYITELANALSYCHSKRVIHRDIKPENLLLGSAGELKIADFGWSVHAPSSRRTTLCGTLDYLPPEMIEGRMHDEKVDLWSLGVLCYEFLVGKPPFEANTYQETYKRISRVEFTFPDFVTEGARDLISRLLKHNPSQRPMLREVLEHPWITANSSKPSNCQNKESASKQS
The experiment is described as follows: Aurora A Inhibition Assay (Z-Lyte). The conditions noted are these: for IC50: 20 μM ATP, 12 nM Aurora A, read-out: Aurora A IC50 Ranges; for inhibition at 10 µM: 10 μM compound, read-out: Aurora A relative inhibition percentage at a dose of 10 μM. The procedure:
Aurora A inhibition was determined using the Z-Lyte assay kit from Invitrogen. The assay was performed using the recommended manufacturer's instructions with 20 μM ATP and 12 nM Aurora A (Invitrogen cat #PV3612). The % inhibition values were determined according to the manufacturer's directions and IC50 values were obtained using a non-linear 4 point logistic curve fit (XLfit4, IDBS)

The target in another experiment is T2, PLK2 (Homo sapiens, UniProt Q9NYY3).
T2 construct: purchased Invitrogen PV4204
The experiment is described as follows: PLK2 Inhibition Assay (Z-Lyte). The conditions noted are these: 10 μM compound; read-out: PLK2 relative inhibition percentage at a dose of 10 μM. The protocol: PLK2 inhibition was determined using the Z-Lyte assay kit from Invitrogen (cat #PV3802). The assay was performed using the recommended manufacturer's instructions with 60 μM ATP and 133 nM PLK2 (Invitrogen cat #PV4204). The % inhibition values were determined according to the manufacturer's directions and IC50 values were obtained using a non-linear 4 point logistic curve fit (XLfit4, IDBS)

A further experiment deals with T3, PLK1 (Homo sapiens, UniProt P53350).
T3 construct: purchased Invitrogen PV3501
The experiment in a line: PLK1 Inhibition Assay (Z-Lyte). Conditions: for inhibition at 10 µM: 10 μM compound, read-out: PLK1 relative inhibition percentage at a dose of 10 μM. The protocol:
PLK1 inhibition was determined using the Z-Lyte assay kit from Invitrogen (cat #PV3802). […] The % inhibition values were determined according to the manufacturer's directions and IC50 values were obtained using a non-linear 4 point logistic curve fit (XLfit4, IDBS)

A further experiment addresses T4, Aurora B (Homo sapiens, UniProt Q96GD4).
T4 construct: purchased Invitrogen PV3970
The experiment is described as follows: Aurora B Inhibition Assay (Z-Lyte). Conditions: 128 μM ATP, 28 nM Aurora B; read-out: Aurora B IC50 Ranges. The protocol:
Aurora B inhibition was determined using the Z-Lyte assay kit from Invitrogen. The assay was performed using the recommended manufacturer's instructions with 128 μM ATP and 28 nM Aurora B (Invitrogen cat #PV3970). The % inhibition values were determined according to the manufacturer's directions and IC50 values were obtained using a non-linear 4 point logistic curve fit (XLfit4, IDBS)

Another experiment has as its target T5, human PLK4 (Homo sapiens, UniProt O00444).
T5 construct: amino terminal GST fusion of residues 1-391 of human PLK4; made in house; host or cells: E. coli
T5 sequence (O00444 1-391): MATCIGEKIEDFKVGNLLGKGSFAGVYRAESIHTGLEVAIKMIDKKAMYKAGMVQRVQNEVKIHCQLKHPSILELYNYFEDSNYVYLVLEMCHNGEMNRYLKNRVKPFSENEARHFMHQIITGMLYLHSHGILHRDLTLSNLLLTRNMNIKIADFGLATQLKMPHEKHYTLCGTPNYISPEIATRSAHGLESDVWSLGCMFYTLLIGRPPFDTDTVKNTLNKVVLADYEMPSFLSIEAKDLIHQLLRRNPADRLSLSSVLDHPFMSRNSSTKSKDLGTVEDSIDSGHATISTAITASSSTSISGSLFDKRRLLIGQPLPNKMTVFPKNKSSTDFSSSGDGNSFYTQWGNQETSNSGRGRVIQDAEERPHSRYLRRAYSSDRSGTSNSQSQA
The experiment is described as follows: PLK4 Inhibition Assay (indirect ELISA). The conditions noted are these: 15 μM ATP, 4 nM GST-PLK4; read-out: PLK4 IC50 Ranges. The essentials: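 IC50 values, from 4-point logistic fitting, reflect remaining activity measured by indirect ELISA. Enzyme was GST-PLK4 treated with lambda phosphatase and given a 15-minute pre-incubation with compound before ATP start.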
In general terms: In an ELISA, binding on a coated surface is turned into a signal by an enzyme label.

T3 sequence (P53350 whole entry): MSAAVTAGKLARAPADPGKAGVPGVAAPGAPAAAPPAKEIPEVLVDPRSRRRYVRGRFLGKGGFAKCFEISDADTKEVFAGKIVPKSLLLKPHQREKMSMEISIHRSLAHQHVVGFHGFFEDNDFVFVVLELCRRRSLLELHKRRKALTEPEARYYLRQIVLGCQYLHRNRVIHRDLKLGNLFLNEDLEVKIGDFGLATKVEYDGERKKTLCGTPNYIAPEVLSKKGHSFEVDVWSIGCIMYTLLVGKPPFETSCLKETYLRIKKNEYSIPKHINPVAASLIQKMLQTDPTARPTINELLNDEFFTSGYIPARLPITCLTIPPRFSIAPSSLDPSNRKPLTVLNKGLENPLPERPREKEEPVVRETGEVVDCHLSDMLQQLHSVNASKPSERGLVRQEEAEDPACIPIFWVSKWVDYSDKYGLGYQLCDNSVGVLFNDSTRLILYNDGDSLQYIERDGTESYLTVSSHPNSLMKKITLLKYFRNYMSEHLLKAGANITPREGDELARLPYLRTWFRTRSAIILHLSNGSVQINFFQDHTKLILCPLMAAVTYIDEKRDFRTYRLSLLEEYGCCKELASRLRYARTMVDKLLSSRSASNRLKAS
T4 sequence (Q96GD4 whole entry): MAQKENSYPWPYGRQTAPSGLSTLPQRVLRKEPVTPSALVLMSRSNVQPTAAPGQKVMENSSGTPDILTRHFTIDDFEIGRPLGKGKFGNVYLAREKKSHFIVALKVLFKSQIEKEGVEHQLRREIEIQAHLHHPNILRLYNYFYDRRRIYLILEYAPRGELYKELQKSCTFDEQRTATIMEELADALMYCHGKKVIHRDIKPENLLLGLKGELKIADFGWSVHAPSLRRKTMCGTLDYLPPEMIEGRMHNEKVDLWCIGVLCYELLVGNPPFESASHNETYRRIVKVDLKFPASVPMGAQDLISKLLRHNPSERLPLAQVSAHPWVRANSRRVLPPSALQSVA
T2 sequence (Q9NYY3 whole entry): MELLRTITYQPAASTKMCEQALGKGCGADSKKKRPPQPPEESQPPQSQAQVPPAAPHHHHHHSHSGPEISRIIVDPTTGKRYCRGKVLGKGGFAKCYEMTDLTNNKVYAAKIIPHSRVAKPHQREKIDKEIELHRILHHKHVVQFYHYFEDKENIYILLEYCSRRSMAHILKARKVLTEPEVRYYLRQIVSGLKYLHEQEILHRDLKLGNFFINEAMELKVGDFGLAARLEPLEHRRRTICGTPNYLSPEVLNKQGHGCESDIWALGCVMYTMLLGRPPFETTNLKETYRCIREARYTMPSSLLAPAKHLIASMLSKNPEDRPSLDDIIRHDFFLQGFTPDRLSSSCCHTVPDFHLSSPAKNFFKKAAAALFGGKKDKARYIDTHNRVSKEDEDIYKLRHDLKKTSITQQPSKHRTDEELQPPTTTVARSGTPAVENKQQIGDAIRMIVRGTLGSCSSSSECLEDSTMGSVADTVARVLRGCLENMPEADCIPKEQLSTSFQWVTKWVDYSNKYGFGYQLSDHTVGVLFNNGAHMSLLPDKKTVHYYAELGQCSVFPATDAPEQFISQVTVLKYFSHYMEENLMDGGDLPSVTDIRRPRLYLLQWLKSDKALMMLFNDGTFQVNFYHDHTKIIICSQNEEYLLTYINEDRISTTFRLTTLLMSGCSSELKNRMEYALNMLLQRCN

For `O=C1Nc2ccccc2/C1=C\c1ccc2c(/C=C/c3ccccc3)n[nH]c2c1` [Example A58, (E)-3-((E)-(3-styryl-1H-indazol-6-yl)methylene)indolin-2-one], the IC50 at Aurora A, on Aurora B and at human PLK4 was below 5 µM throughout. Moreover, the inhibition at 10 µM on PLK2 and at PLK1 was below 50% in each case.
For the compound `O=C1Nc2ncccc2C1=Cc1ccc2c(/C=C/c3cccnc3)n[nH]c2c1` (mixture of isomers) [Example A114, (E and Z)-3-((3-((E)-2-(pyridin-3-yl)vinyl)-1H-indazol-6-yl)methylene)-1H-pyrrolo[2,3-b]pyridin-2(3H)-one], the IC50 at Aurora A, on Aurora B and at human PLK4 was below 5 µM throughout. The inhibition at 10 µM on PLK2 and on PLK1 was below 50% each time.
As to `O=C1Nc2ccccc2C1=Cc1ccc2c(CCc3ccncc3)n[nH]c2c1` (mixture of isomers) [Example A64, (E and Z)-3-((3-(2-(pyridin-4-yl)ethyl)-1H-indazol-6-yl)methylene)-indolin-2-one], the inhibition at 10 µM at Aurora A is above 50%; on PLK2, below 50%; on PLK1 it was below 50%. Also, the 50% inhibitory concentration (IC50) on Aurora B and on human PLK4 was below 5 µM throughout.
For the compound `COc1ccc2c(c1)C(=Cc1ccc3c(/C=C/c4cccnc4)n[nH]c3c1)C(=O)N2` (mixture of isomers) [Example A115, (E and Z)-5-methoxy-3-((3-((E)-2-(pyridin-3-yl)vinyl)-1H-indazol-6-yl)methylene)indolin-2-one], the concentration for half-maximal inhibition (IC50) at Aurora A, at Aurora B and at human PLK4 was below 5 µM in each case. For the same compound, the inhibition at 10 µM on PLK2 and at PLK1 was below 50% each time.
`Cc1ccc2c(c1)C(=Cc1ccc3cn[nH]c3c1)C(=O)N2` (mixture of isomers) [Example A81, (E and Z)-3-((1H-indazol-6-yl)methylene)-5-methylindolin-2-one]: the IC50 at Aurora A, at Aurora B and at human PLK4 was below 5 µM in each case. The inhibition at 10 µM at PLK2 and on PLK1 was below 50% throughout.
As to `O=C1Nc2ccc(Br)cc2/C1=C\c1ccc2[nH]nnc2c1` [Example A3, (E)-3-((1H-benzo[d][1,2,3]triazol-5-yl)methylene)-5-bromoindolin-2-one], the results for the inhibition at 10 µM on Aurora A and on PLK2 were below 50% and above 50%, respectively. Further, the IC50 at PLK1 (25 μM ATP, 8 nM PLK1, read-out: PLK1 IC50 Ranges) was 5 to 50 µM; at Aurora B, 5 to 50 µM; at human PLK4, below 5 µM.
Regarding `O=C1Nc2ccc(Cl)cc2/C1=C\c1ccc2cn[nH]c2c1` [Example A80, (E)-3-((1H-indazol-6-yl)methylene)-5-chloroindolin-2-one], the IC50 on Aurora A, at Aurora B and on human PLK4 was below 5 µM throughout. Further, the inhibition at 10 µM at PLK2 and on PLK1 was below 50% in each case.
`COCn1nc(/C=C/c2ccncc2)c2ccc(/C=C3/C(=O)Nc4ccc(Br)cc43)cc21` [Example A63, (E)-5-bromo-3-((1-(methoxymethyl)-3-((E)-2-(pyridin-4-yl)vinyl)-1H-indazol-6-yl)methylene)indolin-2-one]: the inhibition at 10 µM at PLK2 and at PLK1 was below 50% each time. Also, the IC50 on human PLK4 is below 5 µM.
With `O=C1Nc2ccccc2/C1=C\c1cc(Br)c2cn[nH]c2c1` [Example A53a, (E)-3-((4-bromo-1H-indazol-6-yl)methylene)indolin-2-one], the inhibition at 10 µM on PLK2 was above 50%; at PLK1 it was below 50%. Besides, the IC50 on Aurora B and on human PLK4 was below 5 µM in each case.
For the compound `O=C1Nc2ccc(Br)cc2C1=Cc1ccc2c(/C=C/c3cccnc3)n[nH]c2c1` (mixture of isomers) [Example A139, (E and Z)-5-bromo-3-((3-((E)-2-(pyridin-3-yl)vinyl)-1H-indazol-6-yl)methylene)indolin-2-one], the IC50 at Aurora A, at Aurora B and on human PLK4 was below 5 µM throughout.
Turning to `O=C1Nc2ccc(O)cc2/C1=C\c1ccc2c(/C=C/c3ccncc3)n[nH]c2c1` [Example A124, (E)-5-hydroxy-3-((3-((E)-2-(pyridin-4-yl)vinyl)-1H-indazol-6-yl)methylene)indolin-2-one 2,2,2-trifluoroacetate], the half-inhibitory concentration (IC50) at Aurora A, on Aurora B and at human PLK4 was below 5 µM throughout.
Take `COc1ccc2c(c1)/C(=C\c1ccc3c(-c4cnc(N5CCN(C)CC5)nc4)n[nH]c3c1)C(=O)N2` [Example A151, (E)-5-methoxy-3-((3-(2-(4-methylpiperazin-1-yl)pyrimidin-5-yl)-1H-indazol-6-yl)methylene)indolin-2-one]: the results for the IC50 at Aurora A, on Aurora B and on human PLK4 were 5 to 50 µM, below 5 µM and below 5 µM, respectively.
In the case of `COc1ccc2c(c1)/C(=C\c1ccc3c(-c4ccc(N(C)C)nc4)n[nH]c3c1)C(=O)N2` [Example A116, (E)-3-((3-(6-(dimethylamino)pyridin-3-yl)-1H-indazol-6-yl)methyl-ene)-5-methoxyindolin-2-one], the inhibition at 10 µM on PLK2 and at PLK1 was below 50% in each case.
Consider `COc1ccc2c(c1)/C(=C\c1ccc3c(/C=C/c4ccc(C(=O)O)cc4)n[nH]c3c1)C(=O)N2` [Example A145, 4-((E)-2-(6-((E)-(5-methoxy-2-oxoindolin-3-ylidene)methyl)-1H-indazol-3-yl)vinyl)benzoic acid], for which the IC50 on Aurora A, at Aurora B and on human PLK4 was below 5 µM throughout.
As for `COc1cc2c(cc1OC)/C(=C\c1ccc3c(/C=C/c4ccncc4)n[nH]c3c1)C(=O)N2` [Example A138, (E)-5,6-dimethoxy-3-((3-((E)-2-(pyridin-4-yl)vinyl)-1H-indazol-6-yl)methylene)indolin-2-one], the IC50 on Aurora A, on Aurora B and at human PLK4 was below 5 µM throughout.
Regarding `O=C1Nc2ccccc2/C1=C\c1ccc2c(/C=C/c3ccc(C(=O)O)cc3)n[nH]c2c1` [Example A144, 4-((E)-2-(6-((E)-(2-oxoindolin-3-ylidene)methyl)-1H-indazol-3-yl)vinyl)benzoic acid], the IC50 at Aurora A, on Aurora B and on human PLK4 was below 5 µM in each case.
Turning to `O=C1Nc2ncc(Br)cc2C1=Cc1ccc2c(/C=C/c3cccnc3)n[nH]c2c1` (mixture of isomers) [Example A140, (E and Z)-5-bromo-3-((3-((E)-2-(pyridin-3-yl)vinyl)-1H-indazol-6-yl)methylene)-1H-pyrrolo[2,3-b]pyridin-2(3H)-one], the concentration for half-maximal inhibition (IC50) at Aurora A, on Aurora B and at human PLK4 was below 5 µM in each case.
